Tests used:
MYCN gene = assay: QT-PCR, MYCN mRNA in Kelly cells; type: cell-based, human; parameters: mRNA Inhibition (%)(Kelly): concentration or dose not given beside the values; details: for mRNA inhibition (%): Table 1, PNA 1 μM, RNA extracted after 24 hours; for Kelly % mRNA: Table 6
Procedure: For the purpose of assessing the ability of the oligonucleotides of the present invention to modulate the expression of the target genes, their ability to reduce the quantity of messenger RNA was analyzed using the Real-Time PCR technique.
For this purpose, use was made of 24-well plates, which were seeded with 5.0×10^4 cells with 0.3 ml of OPTI-MEM (GIBCO BRL) medium, 4% FBS and 2 mM L-glutammine (experiments in triplicate) per well.
The cells were incubated for 24 hours at 37° C., in an atmosphere containing 5% CO2 to permit adherence to the base of the wells.
Each oligonucleotide analyzed, except for the PNA oligonucleotides, was incubated beforehand with 2 μl of Lipofectamine 2000 (Invitrogen), with 0.3 mL of serum-free OPTI-MEM (GIBCO BRL) medium.
For each well, the oligonucleotides were analyzed at the following final concentrations: • the antisense oligonucleotides siRNA and siRNA gapmer (i.e. the oligonucleotides containing one or more monomers of chemically modified nucleic acids at the 3′ or 5′ end, while in the central portion they have monomers of nucleic acids that have not been modified or have been modified at the level of the phosphodiester bond as a phosphorothioate bond) were used at 200 nM; • the antisense oligonucleotides containing phosphorothioate DNA monomers, the RNA antigene oligonucleotides (agRNA) and the oligonucleotides containing DNA monomers and LNA monomers were used at 10 μM; • the morpholino oligonucleotides were used at a concentration of 1 μM, and • the PNA oligonucleotides were administered at a concentration of 1 μM.
The cells were treated with the oligonucleotides, adding FBS up to 4% 6 hours after administration of the same. After 24 hours the total RNA was extracted from each well and purified using the RNeasy Mini Kit (QIAGEN).
Assays were performed on 8 cell lines obtained from 5 different human tumours which are correlated with MYCN expression, i.e.: • as a neuroblastoma model use was made of the cell lines Kelly, IMR-32 (where the MYCN gene is amplified and superexpressed) and SKNBE2c and LAN1 (where the MYCN gene is amplified and superexpressed and the p53 gene is mutated); • as a rabdomiosarcoma model use was made of the cell line RH30, where the MYCN gene is amplified and superexpressed; • as a Wilms' tumour model use was made of the cell line WiT49, where the MYCN gene is amplified and superexpressed; • as a retinoblastoma model use was made of the cell line Y79, where the MYCN gene is amplified and superexpressed; and • as a model of small cell lung cancer use was made of the cell line H69 where the MYCN gene is amplified and superexpressed.
As a control, use was made of the same cell lines as listed above treated with sterile water instead of oligonucleotides. Each RNA sample was quantified (in duplicate) using a NanoDrop ND-1000 spectrophotometer (NanoDrop Technologies). The first strand of cDNA was produced using the cDNA Synthesis Kit for RT-PCR (Roche). For the cDNA synthesis reaction a total of 1 μg of RNA was used. For the real-time PCR, 10 ng of cDNA in a final volume of 20 μl was used with SYBR Green Master Mix 2× (Applied Biosystems) (3 identical experiments were conducted in triplicate). Two housekeeping genes were used as positive controls: GAPDH and beta-actin (ACTB).
The conditions of the QT-PCR reaction were: 10 min at 95° C., 20 sec at 95° C., and 30 sec at 60° C., for 50 cycles.
As far as the PNA oligonucleotides are concerned, the results regarding their ability to inhibit the transcription of the MYCN gene and proliferation of Kelly cells are shown in Table 1.
The oligonucleotides were tested in vitro (at a concentration of 2.5 μM) to determine their ability to inhibit the transcription of the gene they are directed against by measuring the levels of the gene messenger in cellular models in which the gene of interest is overexpressed. The methods used are the ones described in example 1. […]

Kelly cells = assay: Cellular proliferation assay (ATP-Lite), Kelly cells; type: cell-based, human; details: for Cell Prolif (%) 1 μM 72 h: PNA 1 μM; for Cell Prolif. (%) 5 μM 72 h: PNA 5 μM; for Cell Prolif. (%) 10 μM 72 h: PNA 10 μM; for Cell Prolif (%) 2,5 μM 72 h: PNA 2,5 μM; for Cell Prolif. (%): Table 1, treated vs untreated control cells; for Kelly % cell prol.: Table 6
Summary of the method: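 Kelly cells seeded at 5×10^3/well in OPTI-MEM with 4% FBS and 2 mM L-glutamine, in triplicate. PNA oligonucleotides at 1, 2.5, 5 or 10 μM. Viability by ATP-Lite luminescence at 48, 72, 96 and 168 h, as ratio to untreated controls.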

NIH-3T3 = assay: Cellular proliferation, NIH-3T3 fibroblastoid-type cells; type: cell-based; details: Table 1; cells that do not express MYCN
Procedure: Cell viability was assessed by means of an ATP-Lite assay (Luminescence ATP Detection Assay System, PerkinElmer) and is reported as the ratio between the average signal of the treated wells compared to the average value of the wells of untreated control cells. The cells were processed following the instructions provided with the kit.
Moreover, the oligonucleotides having SEQ ID NO 1-23 were administered in lines of fibroblastoid-type cells (NIH-3T3 and Phoenix) and the results are shown in Table 1 (last two columns). […]

[1] = Table 7, SEQ ID NO: 5 and guanine-group mutants

Substance | mRNA inhibition (%) (MYCN gene) | Kelly % mRNA (MYCN gene) [%] | Cell Prolif (%) 1 μM 72 h (Kelly cells) [%] | Cell Prolif. (%) 5 μM 72 h (Kelly cells) [%] | Cell Prolif. (%) 10 μM 72 h (Kelly cells) [%] | Cell Prolif (%) 2,5 μM 72 h (Kelly cells) [%] | Cell Prolif. (%) (Kelly cells) | Kelly % cell prol. (Kelly cells) [%] | NIH-3T3 prolif. (%) (NIH-3T3) | mRNA Inhibition (%)(Kelly) (MYCN gene; [1]) [%] | (Kelly) Cell Prolif. % (Kelly cells; [1]) [%]
SEQ ID NO: 8: PNA antigene oligonucleotide GTCTGGACGCGCTGGG directed against MYCN (all peptide nucleic acid (PNA)) | 54 | 54 | 80 | 32 | 11 | 57 | 59 | 59 | 100 | – | –
SEQ ID NO: 5: PNA antigene oligonucleotide GCTGGGTGGATGCGGG directed against MYCN (PNA backbone, chemistry not fully specified) | 62 | 62 | 79 | 27 | 5 | 53 | 53 | 53 | 100 | 62 | 53
SEQ ID NO: 2: PNA antigene oligonucleotide GGGTGGATGCGGGGGG directed against MYCN (PNA backbone, chemistry not fully specified) | 75 | 75 | 74 | 12 | 2 | 32 | 32 | 32 | 100 | – | –
SEQ ID NO: 7: PNA antigene oligonucleotide CGCGCTGGGTGGATGC directed against MYCN (all peptide nucleic acid (PNA)) | 58 | 58 | 80 | 31 | 8 | 54 | 57 | 57 | 100 | – | –
SEQ ID NO: 1: PNA ATGCCGGGCATGATCT against MYCN; subject of patent EP 1618195, control sequence used for comparison (all peptide nucleic acid (PNA)) [reference compound] | 42 | 48 | 89 | 50 | 24 | 66 | 70 | 66 | 100 | – | –
SEQ ID NO: 10: PNA antigene oligonucleotide CGGCCGCGGGCCGCCA directed against MYCN (PNA backbone, chemistry not fully specified) | 51 | 51 | – | – | – | – | 65 | 64 | 100 | – | –
